The values that follow are results of earlier work, collected in patent US5840770A, “Method of killing tumor cells” (Hill Medical Corporation, priority 1997, dated 1998).

The test system of series [1] is low-grade non-Hodgkin's lymphoma, cutaneous T cell lymphoma, chronic myelogenous leukemia, Kaposi's sarcoma and especially hairy cell leukemia.
For series [2] the following is noted: normally.
In series [3] the test system is mouse and rat transplanted tumors. The following applies: in vivo.
Series [4] deals with cholinergic receptors. Particulars: in vivo.
Series [5] has as its system serum potassium. Particulars: in vivo.
Assay in series [6]: not given
This is another data set of the same source.

With Interferon-alpha, the efficacy result in series [1] (listed lymphomas, leukemias, Kaposi's sarcoma) is “effective”. In addition, the “effect on other tumors” value in series [1] (tumors other than those listed) was “no effect”.
For `[K+]` [potassium], the “potassium intake excreted in the urine” value in series [2] was 80-90%.
In the case of Glucagon: glucagon alone, the “effect on transplanted tumors” value in series [3] was “arrested these cancers”.
Turning to `CC[C@@H]1C(=O)OC[C@@H]1Cc1cncn1C` [Pilocarpine, pilocarpine], in series [4], the duration was 4 to 8 h and the onset is 15 to 30 min.
As to insulin, the serum potassium concentration entry in series [5] was “lowers serum potassium concentration”. Moreover, the “effect on transplanted tumors” value in series [3] is recorded as “no therapeutic effect”.
Consider `O=C[C@H](O)[C@@H](O)[C@H](O)[C@H](O)CO` [dextrose], for which, where the note is “5% dextrose”, the osmolarity is given as 253 mOsm/L. Besides, the tonicity entry (5% dextrose solution) is “isotonic”. Besides, the infused glucose retained in series [6] (0.8 gm/kg/hour) was 95%. For the same molecule, in series [6] (in vivo), the “maximum infusion rate without producing glycosuria” value was 0.5 gm/kg/hour.
